Laboratory results as given in ChEMBL document CHEMBL1144232, “Tricyclic azepine derivatives as selective brain penetrant 5-HT6 receptor antagonists” (Bioorg Med Chem Lett, 2008).

Key:
[1] = target: T1, 5-hydroxytryptamine receptor 6 (Homo sapiens, UniProt P50406); experiment: Antagonist activity at 5HT6 receptor expressed in HeLa cells assessed as 5HT-induced cAMP accumulation by chemiluminescence assay; assay type: functional, cell-based
Cytochrome P450 3A4 [2] = target: T2, Cytochrome P450 3A4 (Homo sapiens, UniProt P08684); experiment: Inhibition of human CYP3A4 by microtiter plate assays using PPR substrate
Cytochrome P450 3A4 [3] = target: T2, Cytochrome P450 3A4; experiment: Inhibition of human CYP3A4 by microtiter plate assays using N-N,diethyl-formamide as substrate
Liver microsomes = experiment: Metabolic stability in rat liver microsomes assessed as intrinsic clearance at […] upto 30 mins; assay type: ADME, Microsome; conditions: 0.5 h
[4] = target: 5-hydroxytryptamine receptor 2B (Homo sapiens, UniProt P41595); experiment: Antagonist activity at 5HT2B receptor; assay type: functional
[5] = target: T3, 5-hydroxytryptamine receptor 2C (Homo sapiens, UniProt P28335); experiment: Antagonist activity at 5HT2C receptor; assay type: functional
T3 sequence (P28335 whole entry): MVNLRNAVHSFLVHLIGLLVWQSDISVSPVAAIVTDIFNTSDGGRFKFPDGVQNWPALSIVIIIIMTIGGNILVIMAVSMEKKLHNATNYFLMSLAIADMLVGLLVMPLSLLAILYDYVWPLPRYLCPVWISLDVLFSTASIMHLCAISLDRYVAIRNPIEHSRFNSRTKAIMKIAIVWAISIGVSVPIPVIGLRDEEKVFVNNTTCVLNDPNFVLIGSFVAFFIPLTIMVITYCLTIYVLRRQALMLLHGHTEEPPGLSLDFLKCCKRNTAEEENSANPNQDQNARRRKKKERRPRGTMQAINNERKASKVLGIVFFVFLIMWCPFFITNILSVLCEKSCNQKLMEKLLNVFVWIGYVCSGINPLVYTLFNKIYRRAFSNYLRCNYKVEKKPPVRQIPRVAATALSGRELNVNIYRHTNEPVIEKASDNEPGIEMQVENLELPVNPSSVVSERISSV

[6] = target: 5-hydroxytryptamine receptor 2A (Homo sapiens, UniProt P28223); experiment: Antagonist activity at 5HT2A receptor; assay type: functional
[7] = target: 5-hydroxytryptamine receptor 6 (Rattus norvegicus) (UniProt P31388); experiment: Ex vivo displacement of [125I]258585 from 5HT6 receptor in po dosed rat striatum; assay type: organism-based
[8] = target: T1, 5-hydroxytryptamine receptor 6; experiment: Antagonist activity at 5HT6 receptor; assay type: functional
[9] = Ratio of drug level in brain to blood in orally dosed rat after 4 hrs; conditions: brain and blood, po
Blood = experiment: Drug level in rat blood at 1 mg/kg, po; assay type: ADME, organism-based; set-up: dose 1 mg/kg, route oral; conditions: in vivo, read-out: Drug uptake

T1 sequence (P50406 whole entry): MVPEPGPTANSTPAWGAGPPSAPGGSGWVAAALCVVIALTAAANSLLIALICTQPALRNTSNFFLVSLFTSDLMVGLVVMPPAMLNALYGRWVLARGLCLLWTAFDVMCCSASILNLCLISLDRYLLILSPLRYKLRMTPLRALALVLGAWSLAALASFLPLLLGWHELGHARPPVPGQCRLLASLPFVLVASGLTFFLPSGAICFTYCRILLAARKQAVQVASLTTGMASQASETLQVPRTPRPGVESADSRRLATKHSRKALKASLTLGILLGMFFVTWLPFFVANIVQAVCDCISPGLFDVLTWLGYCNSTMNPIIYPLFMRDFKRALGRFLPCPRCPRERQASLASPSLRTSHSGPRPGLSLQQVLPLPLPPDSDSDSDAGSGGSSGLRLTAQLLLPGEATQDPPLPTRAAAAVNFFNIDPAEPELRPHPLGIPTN
T2 sequence (P08684 whole entry): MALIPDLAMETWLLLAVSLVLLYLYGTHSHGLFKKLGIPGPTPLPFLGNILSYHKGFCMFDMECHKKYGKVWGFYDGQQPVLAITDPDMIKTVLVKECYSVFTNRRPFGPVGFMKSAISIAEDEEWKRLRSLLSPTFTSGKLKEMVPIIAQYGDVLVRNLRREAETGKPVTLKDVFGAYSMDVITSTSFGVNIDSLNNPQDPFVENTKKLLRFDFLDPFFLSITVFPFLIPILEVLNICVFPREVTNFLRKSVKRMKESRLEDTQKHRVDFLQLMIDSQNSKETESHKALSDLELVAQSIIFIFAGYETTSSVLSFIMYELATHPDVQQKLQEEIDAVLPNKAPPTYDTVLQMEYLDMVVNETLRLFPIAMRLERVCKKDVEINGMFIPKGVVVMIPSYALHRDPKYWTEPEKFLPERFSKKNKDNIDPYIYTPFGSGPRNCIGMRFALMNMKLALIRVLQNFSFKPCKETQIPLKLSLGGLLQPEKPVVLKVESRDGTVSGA
Chain of 5-hydroxytryptamine receptor 2A (P28223 whole entry): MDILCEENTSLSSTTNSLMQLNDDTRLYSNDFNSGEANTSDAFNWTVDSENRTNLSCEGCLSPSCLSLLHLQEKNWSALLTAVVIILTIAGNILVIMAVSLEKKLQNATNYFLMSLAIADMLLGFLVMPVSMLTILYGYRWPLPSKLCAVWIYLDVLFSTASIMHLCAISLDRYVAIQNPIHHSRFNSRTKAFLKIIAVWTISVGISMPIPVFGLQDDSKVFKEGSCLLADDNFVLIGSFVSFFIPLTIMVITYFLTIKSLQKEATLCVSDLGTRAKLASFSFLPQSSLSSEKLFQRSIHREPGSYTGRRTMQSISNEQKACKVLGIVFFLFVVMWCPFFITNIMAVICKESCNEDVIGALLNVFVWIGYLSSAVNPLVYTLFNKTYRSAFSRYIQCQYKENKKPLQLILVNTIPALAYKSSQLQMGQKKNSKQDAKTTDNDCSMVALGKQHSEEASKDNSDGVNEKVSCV
Chain of 5-hydroxytryptamine receptor 2B (P41595 whole entry): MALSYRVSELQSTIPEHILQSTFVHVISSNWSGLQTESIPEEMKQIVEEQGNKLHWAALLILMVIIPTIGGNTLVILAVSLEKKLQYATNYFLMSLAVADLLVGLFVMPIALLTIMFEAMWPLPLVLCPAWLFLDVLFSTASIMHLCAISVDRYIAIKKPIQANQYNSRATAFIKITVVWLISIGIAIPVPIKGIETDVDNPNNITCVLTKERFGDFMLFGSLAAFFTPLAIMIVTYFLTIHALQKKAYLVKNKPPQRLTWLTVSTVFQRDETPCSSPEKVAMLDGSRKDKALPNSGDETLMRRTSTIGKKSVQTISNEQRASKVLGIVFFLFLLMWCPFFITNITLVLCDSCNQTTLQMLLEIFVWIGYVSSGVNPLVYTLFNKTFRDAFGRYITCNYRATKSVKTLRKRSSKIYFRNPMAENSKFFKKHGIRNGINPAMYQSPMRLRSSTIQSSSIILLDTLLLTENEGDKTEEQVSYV
Chain of 5-hydroxytryptamine receptor 6 (Rattus norvegicus) (P31388 whole entry): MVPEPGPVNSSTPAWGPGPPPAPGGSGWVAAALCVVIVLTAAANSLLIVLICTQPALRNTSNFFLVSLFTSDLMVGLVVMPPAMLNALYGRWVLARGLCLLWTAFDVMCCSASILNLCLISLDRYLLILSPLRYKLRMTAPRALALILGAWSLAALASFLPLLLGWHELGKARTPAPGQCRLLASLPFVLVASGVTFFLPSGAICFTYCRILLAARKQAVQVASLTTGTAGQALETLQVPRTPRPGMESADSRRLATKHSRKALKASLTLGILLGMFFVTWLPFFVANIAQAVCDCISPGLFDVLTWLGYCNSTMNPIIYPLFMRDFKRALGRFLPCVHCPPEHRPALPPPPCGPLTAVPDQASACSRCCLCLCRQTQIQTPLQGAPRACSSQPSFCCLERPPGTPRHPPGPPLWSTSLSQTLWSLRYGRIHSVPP

Row | Structure (SMILES) | Ki [1] [nM] | IC50 (Cytochrome P450 3A4 [2]) [nM] | IC50 (Cytochrome P450 3A4 [3]) [nM] | CL (Liver microsomes) [mL/min/g] | further results
1 | O=S(=O)(c1ccccc1)n1ccc2cc3c(cc21)CCNCC3 | 1.58 | 20000 | 12000 | 7.1 | –
2 | O=S(=O)(Nc1ccc2c(c1)CCNCC2)c1ccccc1 | – | – | – | – | Ki [8]: 2 nM; Kp at 4 h [9]: 0.5
3 | O=S(=O)(c1ccsc1)n1ccc2cc3c(cc21)CCNCC3 | 7.94 | 22000 | 9700 | 21 | –
4 | O=S(=O)(c1cccc(Cl)c1)n1ccc2cc3c(cc21)CCNCC3 | 1.58 | 7000 | 3000 | 2.5 | concentration (Blood): 38 nM; Kp at 4 h [9]: 5
5 | O=S(=O)(c1ccccc1Cl)n1ccc2cc3c(cc21)CCNCC3 | 7.94 | 3200 | 2500 | 4.5 | –
6 | CN1CCc2cc3ccn(S(=O)(=O)c4cccc(Cl)c4)c3cc2CC1 | 1.26 | 71000 | 15000 | 22 | –
7 | O=S(=O)(c1ccc(Cl)cc1)n1ccc2cc3c(cc21)CCNCC3 | 7.94 | – | – | – | –
8 | O=S(=O)(c1cccc(Cl)c1)n1cc(Cl)c2cc3c(cc21)CCNCC3 | 3.98 | – | – | < 0.5 | –

Continued by falling Ki [1], values first:

Row | Ki [1] [nM] | IC50 (Cytochrome P450 3A4 [2]) [nM] | IC50 (Cytochrome P450 3A4 [3]) [nM] | CL (Liver microsomes) [mL/min/g] | Structure (SMILES) | further results
9 | 100 | 77000 | 39000 | 3.6 | O=S(=O)(c1ccccn1)n1ccc2cc3c(cc21)CCNCC3 | –
10 | 39.8 | – | – | – | O=S(=O)(c1ccccc1)N1CCCc2cc3c(cc21)CCNCC3 | –
11 | 2.51 | 19000 | 12000 | 1.7 | O=S(=O)(c1ccccc1)n1cc(Cl)c2cc3c(cc21)CCNCC3 | Ki [4]: 398 nM; Ki [5]: 158 nM; Ki [6]: 25.1 nM; ED50 [7]: 4 mg/kg
12 | 2 | 13000 | 7800 | 4.6 | Cn1cc(S(=O)(=O)c2ccccc2)c2cc3c(cc21)CCNCC3 | –
13 | 2 | 27000 | 17000 | 2.7 | COc1cccc(S(=O)(=O)n2ccc3cc4c(cc32)CCNCC4)c1 | –
